Measured values published in patent publication US12629419B2, “Prevention or mitigation of T-cell engaging agent-related adverse effects” (Hoffmann-La Roche Inc., priority 2020, dated 2026).
Entries after “also recorded” stand apart in the source; their conditions may differ.

Key:
[1] = test system: CD19-TCB-induced cytokine release; test: CD19-TCB NALM-6 assay, inhibitors added after 24 hrs: cytokine release; format: cell-based; conditions: 100 nM added at 24 hrs; between 24 hrs and 48 hrs
Description: (§1) FIG. 78. In vitro killing assay set-up. PBMCs were co-cultured with CTV labelled NALM-6 cells (E:T=10:1) in the presence of escalating concentrations of CD19-TCB for 24 hrs. At 24 hrs, the culture medium was supplemented with 100 nM dasatinib, 100 nM sirolimus or 100 nM ruxolitinib.
(§2) To assess whether the mTOR inhibitor sirolimus, the JAK1/2 inhibitor ruxolitinib and the Src inhibitor dasatinib can prevent further release of cytokines induced by the treatment of CD19-TCB, they were added in an in vitro killing assay after 24 hrs of activation (FIG. 78). In this assay CTV labelled NALM-6 tumors cells were co-cultured with PBMCs in the presence of escalating doses of CD19-TCB for 24 hrs. At 24 hrs, 100 nM ruxolitinib, 100 nM sirolimus or 100 nM dasatinib were added in the system. To verify if T cells were activated before the addition of the different kinase inhibitors, tumor cell killing and cytokine release were measured at 24 hrs (FIGS. 79 and 80). Lastly, cytokine release and tumor cell killing were measured at 48 hrs to assess the effect of the addition of 100 nM ruxolitinib, 100 nM sirolimus or 100 nM dasatinib on CD19-TCB-induced cytokine release as compared to the effect on killing.

NALM-6 tumors cells = test: CD19-TCB killing assay with NALM-6 cells, inhibitors added after 24 hrs of activation: killing; format: cell-based; conditions: 100 nM added at 24 hrs; measured at 48 hrs
Description: as §1, §2

CTV WSU tumor cells = test: tumor cell killing by PGLALA and CD16 universal CAR-T cells; format: cell-based; conditions: 100 nM inhibitor, 24 hours; for tumor cell killing by PGLALA CAR-T cells: PGLALA Fc anti-CD20 IgG; for tumor cell killing by CD16 CAR-T cells: wild-type Fc anti-CD20 IgG
Description: FIG. 61. CTV labelled WSU tumor cell killing by PGLALA CAR-T cells (A) and CD16 CAR-T cells (B) in the presence and absence of 100 nM ruxolitinib or 100 nM sirolimus. PGLALA CAR-T cells and CD16 CAR-T cells were co-cultured together with CTV labelled WSU tumor cells (E:T=10:1) and escalating concentrations of anti-CD20 IgG with either PGLALA-Fc (for PGLALA CAR-T cells) or wild-type Fc (for CD16 CAR-T cells) in the presence and absence of 100 nM ruxolitinib (ruxo) or 100 nM sirolimus (siro). At 24 hours, the technical replicates were pooled and stained with a LIVE/DEAD™ Near-IR dye to allow exclusion of dead CTV labelled WSU DLCL2 tumor cells by flow cytometry. 1 representative donor.
(§3) To assess the impact of JAK inhibitor ruxolitinib and mTOR inhibitor sirolimus on cytokine release induced by CAR-T cells, we conducted a killing assay where PGLALA and CD16 universal CAR-T cells (CAR-T cells with a CAR comprising an anti-P329G-Fc scFv (binding to PGLALA Fc) or CD16 (binding to wild-type Fc)) were co-cultured with CTV WSU tumor cells in the presence of escalating concentrations of PGLALA Fc and wild-type Fc anti-CD20 IgG in medium supplemented with 100 nM ruxolitinib or 100 nM sirolimus. To verify whether ruxolitinib and sirolimus interfered with tumor cell killing by CAR-T cells, we measured killing of CTV WSU tumor cells by flow cytometry at 24 hours.

[2] = test system: lymphoma patient derived xenograft (PDX); test: CD19-TCB anti-tumor activity in lymphoma PDX bearing humanized NSG mice; format: in vivo; conditions: sirolimus 5 mg/kg, p.o.; for anti-tumor activity in combination with CD19-TCB (0.5 mg/kg): ruxolitinib 30 mg/kg, dasatinib 20 mg/kg, dexamethasone, transient use
Description: (§4) FIG. 89. In vivo experiment timelines and dosing schedule. Humanized NSG mice were engrafted with a lymphoma PDX (5 million cells, s.c.). […] The kinase inhibitors were given twice on the day of the first CD19-TCB administration (D16, once 1 hour before CD19-TCB, and once afterwards), and then once (sirolimus) or twice (dasatinib, ruxolitinib) on the two following days (D17 and D18), as well as once 1 hour before each subsequent CD19-TCB administration.
(§5) First, we verified if the PDX cells were killed upon treatment with CD19-TCB in vitro, using a killing assay. The lymphoma PDX cells were co-cultured together with PBMCs (E:T=10:1) in the presence of CD19-TCB. […] Moreover, they were also administered one hour before each subsequent treatment to prevent residual cytokine secretion (FIG. 89).

[3] = test system: CD19-TCB-mediated cytokine release; test: cytokine release upon first CD19-TCB infusion in lymphoma PDX bearing mice (serum); format: in vivo; conditions: for effects on cytokine levels: compared with obinutuzumab pre-treatment
Description: as §4
FIG. 94. […] Cytokine levels were measured by Luminex in serum collected 6 hrs post first infusion with CD19-TCB. Mean of n=6-8 mice+SD with *p≤0.05, **p<0.01, ***p<0.001 by 1 way ANOVA (Kruskal Wallis test).
as §5

[4] = test system: cytokine release induced by CAR-T cells; test: cytokine release induced by PGLALA and CD16 CAR-T cells (Luminex); format: cell-based; conditions: 100 nM inhibitor
Description: (§6) FIG. 62. Effect of 100 nM ruxolitinib and 100 nM sirolimus on GM-CSF (A), IFN-γ (B), IL-2 (C) and TNF-α (D) induced by PGLALA CAR-T cells. PGLALA CAR-T cells were co-cultured together with CTV labelled WSU tumor cells (E:T=10:1) and escalating concentrations of PGLALA-Fc anti-CD20 IgG in the presence and absence of 100 nM ruxolitinib (ruxo) or 100 nM sirolimus (siro) respectively. At 24 hours, the supernatants from technical replicates were pooled and cytokines were analyzed by Luminex. Mean of n=2 donors.
as §6, with “63.” for “62.”, “CD16” for “PGLALA”, “wild-type Fc” for “PGLALA-Fc”, “(siro).” for “(siro) respectively.”
as §3

[5] = serum 6 hrs post first infusion with CD19-TCB, ruxolitinib 30 mg/kg

SMILES	further release of IFN-γ, TNF-α and IL-6 [1]	CTV labelled NALM-6 tumor cell killing (NALM-6 tumors cells)	tumor cell killing by PGLALA CAR-T cells (CTV WSU tumor cells)	tumor cell killing by CD16 CAR-T cells (CTV WSU tumor cells)	anti-tumor activity in combination with CD19-TCB (0.5 mg/kg) [2]	effects on cytokine levels [3]	IFN-γ, TNF-α and IL-2 release [3, 5]	IL-6 release [3, 5]	release of IFN-γ, TNF-α and GM-CSF ([4]; CD16 CAR-T cells)	release of IFN-γ, TNF-α and GM-CSF ([4]; PGLALA CAR-T cells)	further release of IFN-γ, TNF-α, IL-2 and IL-6 [1]	tumor growth, given as a single agent ([2]; dexamethasone 1, 0.5, 0.25 mg/kg)	IL-2, IFN-γ, TNF-α and IL-6 release upon the first infusion ([3]; serum 6 hrs post first infusion with CD19-TCB)	release of IL-2 ([4]; CD16 CAR-T cells)	release of IL-2 ([4]; PGLALA CAR-T cells)
N#CC[C@H](C1CCCC1)n1cc(-c2ncnc3[nH]ccc23)cn1 [ruxolitinib, Ruxolitinib]	only prevented further release	did not prevent	neither sirolimus nor ruxolitinib prevented	neither sirolimus nor ruxolitinib prevented	minimally interfered; also recorded: did not impair	stronger than the effect of obinutuzumab pre-treatment	to a lower extent	decreased	reduced	reduced					
CO[C@H]1C[C@@H]2CC[C@@H](C)[C@@](O)(O2)C(=O)C(=O)N2CCCC[C@H]2C(=O)O[C@H]([C@H](C)C[C@@H]2CC[C@@H](O)[C@H](OC)C2)CC(=O)[C@H](C)/C=C(\C)[C@@H](O)[C@@H](OC)C(=O)[C@H](C)C[C@H](C)/C=C/C=C/C=C/1C [sirolimus, Sirolimus]		did not prevent	neither sirolimus nor ruxolitinib prevented	neither sirolimus nor ruxolitinib prevented	comparable to CD19-TCB alone; also recorded: did not impair	stronger than the effect of obinutuzumab pre-treatment			strongly reduced	strongly reduced	prevented further release	reduction in tumor growth, yet not significant	suppressed	strongly reduced	strongly reduced
